Converted amounts (≈) assume the structure as drawn. Starred links: 1 amine or outer side, 2 acyl side, 3 side chain; linkers in the order of their positions; H or OH if unused. Positions of bridges follow the written chain, without caps; N, C: chain ends. Non-standard residues stand in square brackets, D forms with d. Residues, ends and D or L forms follow the SMILES beside them. *: point of attachment. X2 = CC(C)[C@H](C)[C@@H](C(=O)[*:2])N(C)[*:1]; d(cisHyp) = O=C(O)[C@H]1C[C@@H](O)CN1; X1 = CC(C)C(C)C(C(=O)[*:2])N(C)[*:1]; Picolinoyl(3-OH) = O=C(c1ncccc1O)*; NMePhg = CN[CH](C(=O)O)c1ccccc1; Sar = CNCC(=O)O
What was measured:
Staphylococcus aureus [1] = test: MIC, tube dilution method; type: cell-based; details: BHI broth
Staphylococcus sp. = test: MIC, tube dilution method; type: cell-based; details: BHI broth
[2] = system: Diplococcus pneumoniac type 1; test: MIC, tube dilution method; type: cell-based, Diplococcus pneumoniae; details: BHI broth containing 10% horse blood
Streptococcus pyogenes = test: MIC, tube dilution method; type: cell-based; details: BHI broth containing 10% horse blood
Sarcina lutea = test: MIC, tube dilution method (incl. synergism with griseoviridin); type: cell-based; details: Table 1; BHI broth
[3] = system: Bacillus subtilis ATCC 6633; test: MIC, tube dilution method; type: cell-based; details: BHI broth
Salmonella gallinanum = test: MIC, tube dilution method; type: cell-based; details: BHI broth
Escherichia coli = test: MIC, tube dilution method; type: cell-based; details: BHI broth
Pseudeomonas aeruginosa = test: MIC, tube dilution method; type: cell-based; details: BHI broth
Proteus vulgaris = test: MIC, tube dilution method; type: cell-based; details: BHI broth
Candida albicans = test: MIC, tube dilution method; type: cell-based; details: malt extract-yeast extract medium
[4] = system: Mycoplasma gallisepticum KP13; test: MIC, dilution method, Mycoplasma; type: cell-based; design: unit not given beside the values; details: Table 4; PPLO enrichment broth (Eiken)
Description: (§1) The MIC were determined by the dilution method.
Medium (1): PPLO enrichment broth (Eiken, Japan)
(§2) was tested in vitro agains several Mycoplasma strains.

[5] = system: Mycoplasma agalactiae PG 2; test: MIC, dilution method, Mycoplasma; type: cell-based; details: Table 4; PPLO broth (Chanock's medium; Difco)
Description: as §1
(§3) (2): PPLO broth (Chanock's medium; Difco)
as §2

Mycoplasma fermentans = test: MIC, dilution method, Mycoplasma; type: cell-based; details: Table 4; PPLO broth (Chanock's medium; Difco)
Description: as §1, §3, §2

[6] = system: Mycoplasma pulmonis PG 22; test: MIC, dilution method, Mycoplasma; type: cell-based; details: Table 4; PPLO broth (Chanock's medium; Difco)
Description: as §1, §3, §2

Solubility in solvents = type: physicochemical; details: for solubility in organic solvents: methanol, ethanol, propanols, n-butanol, dioxane, acetates, ketones, benzene, toluene, chlorinated solvents, DMF, DMSO
Staphylococcus aureus [7] = test: MIC repeated with a far lower dilution rate; type: cell-based; details: for MIC: far lower dilution rate, brain heart infusion broth
Source text: This MIC experiment was based on the two-fold dilutions. To differentiate neoviridogrisein II and viridogrisein in their antibiotic activity, the MIC determination was repeated with a far lower dilution rate.
Medium: brain heart infusion broth

[8] = Growth promotion in chicks on rye diet, 11 days; type: in vivo; details: diet conc 100 ppm
Description: was tested in vivo by incorporation in the diet of growing chicks. One-day old cockerels, 15 birds per treatment were used. The chicks were maintained for 11 days on a feed containing about 55% rye grain, supplemented with vitamins, minerals, fat and protein sources. The high content of rye grain normally gives poor to moderate growth, and this diet is a standard one used for screening growth promoters and antibiotic feed additives. Penicillin (100 ppm) was used as a positive control. Feed/Gain ratio is grams feed consumed per gram of weight gained. Body weight ratio is the ratio of chick body weight at the end of the 11 day study to the initial body weight. The last column is the average gain per bird (in grams).

SMILES	MIC (Staphylococcus aureus [1]; strain 209P)	MIC (Staphylococcus aureus [1]; strain (BX-1633)(PC)r)	MIC (Staphylococcus aureus [1]; strain (EM)r)	MIC (Staphylococcus aureus [1]; strain (EM, CM, SM, PC, TC)r)	MIC (Staphylococcus aureus [1]; strain (EM, OM)r)	MIC (Staphylococcus aureus [1]; strain (PC, EM, NM)r)	MIC (Staphylococcus aureus [1]; strain (PC, TC, EM, LM)r 1)	MIC (Staphylococcus aureus [1]; strain (PC, TC, EM, LM)r 2)	MIC (Staphylococcus aureus [1]; strain (SM, STH)r)	MIC (Staphylococcus aureus [1]; strain (STH)r)	MIC (Staphylococcus aureus [1]; strain (TC, CP, PC)r)	MIC (Staphylococcus aureus [1]; strain (TC, EM, LM, CP)r)	MIC (Staphylococcus aureus [1]; strain Russell(PC)r)	MIC (Staphylococcus aureus [1]; strain Smith)	MIC (Staphylococcus sp.; Staphylococcus sp. (PC)r)	MIC (Staphylococcus sp.; Staphylococcus sp.)	MIC [2]	MIC (Streptococcus pyogenes)	MIC (Sarcina lutea)	MIC [3]	also measured
CC(C)CC1NC(=O)C(NC(=O)c2ncccc2O)C(C)OC(=O)C(c2ccccc2)N(C)C(=O)C(C)NC(=O)C(C(C)C(C)C)N(C)C(=O)CN(C)C(=O)C2CCCN2C1=O (centres unmarked) [NV II, neoviridogrisein II] ({Picolinoyl(3-OH)}-TLP[Sar][X1]A[NMePhg]; ester 1-C; configuration not given here)	0.1 µg/mL (≈ 0.116 µM)	0.2 µg/mL (≈ 0.232 µM)	0.4 µg/mL (≈ 0.463 µM)	0.2 µg/mL (≈ 0.232 µM)	0.4 µg/mL (≈ 0.463 µM)	0.4 µg/mL (≈ 0.463 µM)	6.25 µg/mL (≈ 7.24 µM)	6.25 µg/mL (≈ 7.24 µM)	0.2 µg/mL (≈ 0.232 µM)	0.8 µg/mL (≈ 0.927 µM)	0.2 µg/mL (≈ 0.232 µM)	6.25 µg/mL (≈ 7.24 µM)	0.2 µg/mL (≈ 0.232 µM)	0.2 µg/mL (≈ 0.232 µM)	0.4 µg/mL (≈ 0.463 µM)	0.8 µg/mL (≈ 0.927 µM)	0.4 µg/mL (≈ 0.463 µM)	0.2 µg/mL (≈ 0.232 µM)	0.4 µg/mL	0.4 µg/mL (≈ 0.463 µM)	MIC (Salmonella gallinanum): > 25 µg/mL; MIC (Escherichia coli): > 25 µg/mL; MIC (Pseudeomonas aeruginosa): > 25 µg/mL; MIC (Proteus vulgaris): > 25 µg/mL; MIC (Candida albicans): > 25 µg/mL; MIC [4]: 0.025; MIC [5]: 0.39; MIC (Mycoplasma fermentans): < 0.05; MIC [6]: 0.78; solubility in organic solvents (Solubility in solvents): soluble; solubility in petroleum ether and hexane (Solubility in solvents): practically insoluble; solubility in water and ethyl ether (Solubility in solvents): hardly soluble; times more active than viridogrisein (Staphylococcus aureus [7]; from the MIC values of Table 2): 2-3 times; MIC (Staphylococcus aureus [7]; strain 209 P): 0.078 µg/mL (≈ 0.0904 µM); MIC (Staphylococcus aureus [7]; strain (EM, CM, SM, PC, TC)r): 0.125 µg/mL (≈ 0.145 µM); MIC (Staphylococcus aureus [7]; strain (TC, CP, PC)r): 0.094 µg/mL (≈ 0.109 µM); MIC (Staphylococcus aureus [7]; strain Bx-1633(PC)r): 0.125 µg/mL (≈ 0.145 µM); MIC (Staphylococcus aureus [7]; strain Russell(PC)r): 0.125 µg/mL (≈ 0.145 µM); MIC (Staphylococcus aureus [7]; strain Smith): 0.125 µg/mL (≈ 0.145 µM)
CC1(C)S[C@@H]2[C@H](NC(=O)Cc3ccccc3)C(=O)N2[C@H]1C(=O)O [Penicillin]	–	–	–	–	–	–	–	–	–	–	–	–	–	–	–	–	–	–	–	–	FEED/GAIN RATIO ([8]; 11 days, grams feed consumed per gram of weight gained): 1.197; AVG B.W.GAIN ([8]; average gain per bird, 11 days): 163.20 GMS; BODY WEIGHT RATIO ([8]; body weight at end of 11 days to initial): 5.012
CC(C)C[C@H]1NC(=O)[C@@H](NC(=O)c2ncccc2O)[C@@H](C)OC(=O)[C@H](c2ccccc2)N(C)C(=O)[C@H](C)NC(=O)[C@H]([C@@H](C)C(C)C)N(C)C(=O)CN(C)C(=O)[C@H]2C[C@@H](O)CN2C1=O [VG, viridogrisein] ({Picolinoyl(3-OH)}-T[dL][d(cisHyp)][Sar][X2]A[NMePhg]; ester 1-C)	0.2 µg/mL (≈ 0.228 µM)	0.4 µg/mL (≈ 0.455 µM)	0.4 µg/mL (≈ 0.455 µM)	0.4 µg/mL (≈ 0.455 µM)	0.8 µg/mL (≈ 0.91 µM)	0.8 µg/mL (≈ 0.91 µM)	6.25 µg/mL (≈ 7.11 µM)	6.25 µg/mL (≈ 7.11 µM)	0.4 µg/mL (≈ 0.455 µM)	1.6 µg/mL (≈ 1.82 µM)	0.4 µg/mL (≈ 0.455 µM)	6.25 µg/mL (≈ 7.11 µM)	0.4 µg/mL (≈ 0.455 µM)	0.4 µg/mL (≈ 0.455 µM)	0.4 µg/mL (≈ 0.455 µM)	0.8 µg/mL (≈ 0.91 µM)	0.4 µg/mL (≈ 0.455 µM)	0.4 µg/mL (≈ 0.455 µM)	0.2 µg/mL	0.8 µg/mL (≈ 0.91 µM)	MIC (Salmonella gallinanum): > 25 µg/mL; MIC (Escherichia coli): > 25 µg/mL; MIC (Pseudeomonas aeruginosa): > 25 µg/mL; MIC (Proteus vulgaris): > 25 µg/mL; MIC (Candida albicans): > 25 µg/mL; MIC [4]: 0.10; MIC [5]: 0.78; MIC (Mycoplasma fermentans): < 0.05; MIC [6]: 1.56; solubility in organic solvents (Solubility in solvents): soluble; solubility in petroleum ether and hexane (Solubility in solvents): practically insoluble; solubility in water and ethyl ether (Solubility in solvents): hardly soluble; MIC (Staphylococcus aureus [7]; strain 209 P): 0.133 µg/mL (≈ 0.151 µM); MIC (Staphylococcus aureus [7]; strain (EM, CM, SM, PC, TC)r): 0.334 µg/mL (≈ 0.38 µM); MIC (Staphylococcus aureus [7]; strain (TC, CP, PC)r): 0.334 µg/mL (≈ 0.38 µM); MIC (Staphylococcus aureus [7]; strain Bx-1633(PC)r): 0.267 µg/mL (≈ 0.304 µM); MIC (Staphylococcus aureus [7]; strain Russell(PC)r): 0.267 µg/mL (≈ 0.304 µM); MIC (Staphylococcus aureus [7]; strain Smith): 0.267 µg/mL (≈ 0.304 µM)

Reference: US4536397A, “Antibiotics, neoviridogriseins, and their method of production” (Sanraku-Ocean Co., Ltd., priority 1983, dated 1985)
